Earlier results in patent publication US20140044780A1, “Extended-Release Levetiracetam and Method of Preparation” (PharmTak, Inc., priority 2012, published 2014).

Solubility in water: 104 g/100 mL
SMILES: CC[C@@H](C(N)=O)N1CCCC1=O (single isomer, unassigned) [Levetiracetam]
